Entries after “also recorded” stand apart in the source; their conditions may differ.
Columns and labels:
YTHDF2 = target: T1, YTHDF2 (Homo sapiens, UniProt Q9Y5A9); test: Electrophoretic mobility shift assay (EMSA); format: binding; details: for inhibition of the YTHDF2–m6A RNA interaction in EMSA at 100 μM (in words): 100 μM compound, 250 nM YTHDF2, FAM-labeled m6A RNA; for concentration-dependent inhibition of YTHDF2–m6A RNA complex formation in EMSA (in words): 3.1–100 μM compound, 250 nM YTHDF2, 20 nM FAM-labelled m6A RNA
T1 construct: A YTHDF2 YTH domain construct (residues 383–553) was subcloned to a pOPIN plasmid; made in house; host or cells: Escherichia coli BL21(DE3)
T1 sequence (Q9Y5A9 383-553): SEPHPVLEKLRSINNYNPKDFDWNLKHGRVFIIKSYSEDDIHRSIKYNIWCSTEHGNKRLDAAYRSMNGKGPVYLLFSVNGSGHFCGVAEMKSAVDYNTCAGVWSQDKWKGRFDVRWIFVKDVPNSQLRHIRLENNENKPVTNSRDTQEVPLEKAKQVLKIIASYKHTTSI
Method: Compounds with different concentrations (3.1–100 μM) were incubated with 250 nM YTH-domain and 20 nM FAM-17mer-RNA in a buffer containing 20 mM HEPES, pH 8.2, 50 mM NaCl, 0.05% Triton X-100, and 5% v/v glycerol for 20 min at 4 °C. […] Gel imaging was performed in ChemiDoc MP (Bio-Rad), and Cy2/Alexa488 fluorescence was detected with a 1-min exposure time. Quantification of the gel image was performed by ImageJ.

[1] = target: T2, YTHDF3 (residues 391-585) (Homo sapiens, UniProt Q7Z739); test: FP assay with YTH domain of YTHDF3; format: binding; details: 2.0 µM YTHDF3
T2 construct: YTHDF3 (residues 391–585); made in house; host or cells: Escherichia coli BL21(DE3); plasmid from the Zhou lab (Boston College)
T2 sequence (Q7Z739 391-585): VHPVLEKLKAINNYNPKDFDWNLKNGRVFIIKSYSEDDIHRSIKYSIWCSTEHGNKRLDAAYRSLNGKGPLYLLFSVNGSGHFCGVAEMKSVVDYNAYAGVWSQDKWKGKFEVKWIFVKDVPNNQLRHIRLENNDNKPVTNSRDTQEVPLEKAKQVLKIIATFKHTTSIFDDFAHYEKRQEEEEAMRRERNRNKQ
Method: The FP assay was performed in 384-well black plates (Corning no. 4514) with a total reaction volume of 15 μL. The final concentrations of protein (YTHDF2) and RNA were […], respectively, in a buffer containing 20 mM HEPES/KOH pH 7.5, 50 mM NaCl, 0.005% Tween 20, and 1 mM GSH (DTT). Compounds were incubated with protein, added FAM-m^6A RNA probe ([…](m6)ACUGUG) (purchased from IDT), and incubated at 4 °C for 30 min. The fluorescence polarization was measured using a plate reader (TECAN Spark) under an excitation wavelength of 485 nm and an emission wavelength of 535 nm with a bandwidth of 20 nm. […] The data were determined using GraphPad Prism 9.
Figure S9. The FP assay of YTHDF3 binding to the m6A RNA substrate. (A) The purification of YTHDF3 (residues 391-585), molecular weight: 24.1 kDa. (B) The anisotropy values using different concentrations of YTHDF3 with the m6A RNA probe (4 nM), which was used to decide the appropriate […] concentration for the FP (2.0 µM of YTHDF3, Z-factor: 0.55). (C) The […]
(1 picture or pasted object on this page, not shown here)

JAR = test: CCK-8 proliferation assay, JAR; format: cell-based; details: Homo sapiens; CCK-8 kit assay, triplicates, 72 h; read-out: Anti-proliferation activity against cancer cells (IC50), JAR
Method: (§1) The JAR, K562, HCT116, and MOLM13 cells were seeded in 96-well plates (3000 cells/well). After being cultured overnight, compounds were added together with the DMSO treatment (0.1%) as a control. After 72 h, CCK-8 solution (Vazyme, A311) was added, and the cells were incubated at 37 °C for 4 h. The absorbance was measured at 450 nm using a plate reader (TECAN Spark).

HCT116 = test: CCK-8 proliferation assay, HCT116; format: cell-based; details: Homo sapiens, HCT-116; CCK-8 kit assay, triplicates, 72 h; read-out: Anti-proliferation activity against cancer cells (IC50), HCT116
Method: as §1

YTHDF2 YTH domain = target: T3, YTHDF2 YTH domain (Homo sapiens, UniProt Q9Y5A9); test: AlphaScreen assay
T3 sequence (Q9Y5A9 383-553): T1 sequence (Q9Y5A9 383-553)
Method: Initially, the YTHDF2 YTH domain at different concentrations (0–2500 nM) was incubated with varied concentrations of RNA probes (5’-Bi-CGAm6ACUGUC–3′, IDT company) (5, 25, 50, and 100 nM) in 25 mM Hepes (pH 7.5), 100 mM NaCl, and 0.1% BSA to probe the optimal ratio between protein and RNA before the detection signal reached saturation. The AlphaScreen Histidine Detection Kit (Nickel Chelate) (PerkinElmer) 6760619 M and white 384-well Optiplates (PerkinElmer) were used. Anti-His receptor beads (PerkinElmer) (final concentration: 20 μg/mL) and streptavidin donor beads (final concentration: 20 μg/mL) were first added. The reaction mixture was then incubated at room temperature in a dark environment for 1 h to reach equilibrium. The optical signal was detected using a Tecan plate reader.
The inhibitory activities of the phenylpyrazoles (at 100 µM) against YTHDF2 binders
in the amplified luminescent proximity homogeneous assay (AlphaScreen).
phenylpyrazoles featuring a 2 -hydroxybenzoyl moiety R1 (blue) and a 4 -carboxyphenyl moiety
represent average values ± s.d.

[2] = Apoptosis assay (Annexin V/PI flow cytometry); format: cell-based, human; details: human, K562 cells, read-out: Q3: viable
Method: (§2) K562 cells were seeded in six-well plates (1.0 × 10^6 cells/well) and incubated overnight. Compounds of different concentrations were added to the 6-well plates. After incubation for 24 h, the cells were detached with trypsin, washed twice with PBS and cold BioLegend’s cell staining buffer, and then, 5 μL of FITC Annexin V and 10 μL of propidium iodide solution were added. The cells were gently vortexed and incubated in a dark environment for 15 min at room temperature (25 °C). After adding 400 μL of Annexin V binding buffer to each tube, each sample was analyzed by flow cytometry (Sony Biotechnology Cell Sorter SH800S) with proper machine settings, and the data were analyzed by cell sorter software (Sony Biotechnology).

K562 cells = test: Apoptosis assay (Annexin V/PI flow cytometry); format: cell-based, human; details: 24 h
Method: as §2

JAR cells = test: Colony formation assay; format: cell-based, human; details: n = 3 biological replicates
Method: JAR cells in the growth phase are prepared into cell suspensions by traditional digestion. A cell suspension (2 mL) with 200 cells per dish was seeded into a 6-well plate and incubated for 7 days. When visible colonies are present in the 6-well plate, the medium is discarded. The colonies are carefully soaked twice in PBS and dried in air. Cells were fixed with a 4% paraformaldehyde solution for 15 min. The paraformaldehyde solution was discarded, and Giemsa was used to stain the cells for 10 min. The dye solution was slowly washed away with Milli-Q water and then dried in air. The colony number and type were assessed manually under a microscope.

Row | SMILES | inhibition of the YTHDF2–m6A RNA interaction in EMSA at 100 μM (in words) (YTHDF2) | concentration-dependent inhibition of YTHDF2–m6A RNA complex formation in EMSA (in words) (YTHDF2) | inhibition at 100 µM ([1]; read-out: inhibition of YTHDF3 at 100 μM in FP, 100 μM compound) | IC50 (JAR) | IC50 (HCT116) | inhibition at 100 μM in AlphaScreen (YTHDF2 YTH domain; 100 μM compound) | inhibitory IC50 in AlphaScreen (in words) (YTHDF2 YTH domain; Figures S3 and S4) | inhibitory activity against YTHDF3 in FP (in words) [1] | viability at 24 h, 25 µM ([2]; 25 μM) | viability at 24 h, 50 µM ([2]; 50 μM) | viability at 24 h, 100 µM ([2]; 100 μM) | total apoptosis (Q2 + Q4) (K562 cells; 25 μM) | total apoptosis (Q2 + Q4) (K562 cells; 50 μM) | total apoptosis (Q2 + Q4) (K562 cells; 100 μM) | colony formation (in words) (JAR cells)
1 | O=C(O)c1ccc(-n2cc(C(=O)c3cc(Cl)cc(Cl)c3O)cn2)cc1 [CK-61] | potent inhibition; also recorded: potently inhibited | potent inhibition | 12.4% | > 50 µM | > 50 µM | > 80% | low double-digit micromolar |  |  |  |  |  |  |  | 
2 | O=C(O)c1ccc(-n2cc(C(=O)c3c(O)ccc4ccccc34)cn2)cc1 [CK-75] |  |  |  |  |  |  |  | inactive | 71.6% | 65.1% | 54.5% | 28.3% | 34.9% | 45.4% | concentration-dependently inhibited the colony formation
3 | Cc1cc(O)c(C(=O)c2cnn(-c3ccc(C(=O)O)cc3)c2)cc1Cl [CK-79] | potent inhibition; also recorded: potently inhibited | potent inhibition |  | 32.1 ± 6.3 µM | 44 ± 6.8 µM |  |  |  |  |  |  |  |  |  | 

From publication PMC11862924, “Phenylpyrazoles as Inhibitors of the m^6A RNA-Binding Protein YTHDF2” (JACS Au, 2025)
